Measured values published in US7884124B2, “Fluoro-substituted inhibitors of D-amino acid oxidase” (Sepracor Inc., priority 2006, dated 2011).

What was measured:
[1] = system: Chung model rats; experiment: Chung model (L5 spinal nerve ligation), paw withdrawal threshold with von Frey hairs; assay type: in vivo, rat
Description: Adult male Sprague-Dawley rats, weighing 200-230 g at the time of surgery, were used. They were housed in groups of 4 in an air-conditioned room on a 12 h light/dark cycle. Food and water were available ad libitum. The animals were allowed to acclimatize to the experimental environment for three days by leaving them on a lifted metal mesh for at least 40 min. The baseline paw withdrawal threshold (PWT) was examined using a series of graduated von Frey hairs for 3 consecutive days before surgery and re-assessed on the 7th day after surgery and on the 11th to 14th day before drug dosing. The rat Chung model was prepared as described by Kim and Chung (1992). The rat was anaesthetized with 5% isoflurane mixed with oxygen (2 L per min) followed by an i.p. injection of sodium pentobarbitone at 50 mg/kg. The back was shaved and sterilized with 75% ethanol. The animal was placed in a prone position and a para-medial incision was made on the skin covering L4-6 level. The L5 spinal nerve was carefully isolated and tightly ligated with 6/0 silk suture. The wound was then closed in layers after a complete hemostasis. A single dose of antibiotics (Amoxipen 15 mg/rat, ip) was routinely given for prevention of infection after surgery. The animals were placed in a temperature controlled recovery chamber until fully awake before being returned to the home cage. The animals were placed in individual Perspex boxes on a raised metal mesh for at least 40 min before the test. Starting with the filament of lowest force, each filament was applied perpendicularly to the centre of the ventral surface of the paw until slightly bent for 6 seconds. If the animal withdrew or lifted the paw upon stimulation, then a hair with force immediately lower than that tested was used. If no response was observed, then a hair with force immediately higher was tested. The lowest amount of force required to induce reliable responses (positive in 3 out of 5 trials) was recorded as the value of PWT. Only those animals with significant allodynia (PWT≦3.5 g) were selected for drug dosing experiments. The rats in a neuropathic pain state were randomly divided into experimental groups: Vehicle group and 1 group had 8 rats and the gabapentin group had 9 rats. The drug test was carried out 12 to 14 days after surgery. Isotonic 50 mM phosphate buffer (PB), dosed orally at 3 mL/kg, served as the vehicle control. Gabapentin was dissolved in normal saline and given orally at 100 mg/kg. […] The PWT was assessed at 1, 3, 6 and 24 h following drug or vehicle administration. The animals were returned to their home cage for a break (about 30 min) between two neighboring testing time points. One-way analysis of variance (ANOVA) (SPSS software) was used for statistical analysis to compare different groups on the same time points. Paired Student-t test was used to compare different time points in the same group. The significance level was set at P<0.05.

[2] = system: C57BL/6 male mice; experiment: Contextual fear conditioning (freezing 24 hours after training); assay type: in vivo
Source text: Young-adult C57BL/6 male mice were used. Mice were received at 6-7 weeks of age. Upon arrival, mice were assigned unique identification numbers (tail marked) and were group housed in polycarbonate cages with filter tops. All mice were acclimated to the colony room for at least four weeks prior to testing and were subsequently tested at an average age of 10-12 weeks of age. During the period of acclimation, mice were examined on a regular basis, handled, and weighed to assure adequate health and suitability. Mice were maintained on a 12/12 light/dark cycle with the light on at 6:00 a.m. The experiments were always conducted during the light phase of the cycle. The day before the initiation of the experiment, mice were housed single in individual cages and maintained so till the end of the experiment. Animals were randomly assigned across treatment groups. With the exception of testing times, the mice had ad lib access to food and water. Rolipram (0.1 mg/kg) was dissolved in 1% DMSO i.p. 20 min prior to training at a dose volume of 8 ml/kg. To assess contextual conditioning, we use a standardized contextual fear conditioning task originally developed for evaluation of memory in CREB mutant mice (Bourtchouladze, R. et al.; Cell 1994, 79, 59-68). Specifically, on the training day, the mouse is placed into the conditioning chamber for 2 minutes before the onset of the unconditioned stimulus (US), a 0.75 mA foot shock of 2 seconds duration. The US is repeated two times with a 1 min inter-trial interval between shocks. Training is performed using an automated software package. After the last training trial, a mouse is left in the conditioning chamber for another 30 sec and then placed back in its home cage. Contextual memory is tested 24 hours after training. The mouse is placed into the same training chamber and conditioning is assessed by scoring freezing behavior. Freezing is defined as the complete lack of movement in intervals of 5 seconds (Kim et al., 1993; Phillips & LeDoux, 1992; Bourtchouladze et al., 1994; 1998; Abel et al., 1997; Kogan et al., 1997). […]

O=C(O)c1cc2occc2[nH]1 [Compound 11, 4H-furo[3,2-b]pyrrole-5-carboxylic acid]
Effect on PWT ([1]; oral dose of 10 mg/kg): significantly elevated the PWT
Time after dosing at which the effect on PWT reached a peak ([1]; oral dose of 10 mg/kg): 6 h
Time after dosing at which the increase in PWT was first observed ([1]; oral dose of 10 mg/kg): 1 h
Freezing 24 hours after training ([2]; 10 mg/kg p.o. 2 hrs prior to training, vehicle 33.3%+/−5.1%, n=10): 69.7%+/−3.0%

NCC1(CC(=O)O)CCCCC1 [Gabapentin, reference compound]
PWT, ipsilateral side ([1]; gabapentin 100 mg/kg orally, 1 hour after dosing, before dosing 1.48±0.22 g): 3.77 ± 0.42 g
PWT, contralateral side ([1]; gabapentin 100 mg/kg orally, 1 hour after dosing, before dosing 9.67±0.68 g): 10.11 ± 0.93 g
PWT, ipsilateral side ([1]; gabapentin 100 mg/kg orally, 3 hours after dosing, before dosing 1.48±0.22 g): 6.27 ± 0.76 g
PWT, contralateral side ([1]; gabapentin 100 mg/kg orally, 3 hours after dosing, before dosing 9.67±0.68 g): 10.11 ± 0.93 g
PWT, ipsilateral side ([1]; gabapentin 100 mg/kg orally, 6 hours after dosing, before dosing 1.48±0.22 g): 2.38 ± 0.29 g
PWT, contralateral side ([1]; gabapentin 100 mg/kg orally, 6 hours after dosing, before dosing 9.67±0.68 g): 8.29 ± 0.42 g
PWT, ipsilateral side ([1]; gabapentin 100 mg/kg orally, 24 hours after dosing, before dosing 1.48±0.22 g): 2.69 ± 0.60 g
PWT, contralateral side ([1]; gabapentin 100 mg/kg orally, 24 hours after dosing, before dosing 9.67±0.68 g): 9.40 ± 0.71 g
Time after dosing at which the effect on PWT reached a peak ([1]; gabapentin orally dosed at 100 mg/kg): 3 h
Effect on PWT ([1]; gabapentin orally dosed at 100 mg/kg, positive control): significantly increased the PWT

COc1ccc(C2CNC(=O)C2)cc1OC1CCCC1 (stereo not shown) [Rolipram, reference compound]
Freezing 24 hours after training ([2]; Rolipram 0.1 mg/kg i.p. 20 min prior to training, vehicle 27.2%+/−3.6%): 44.4%+/−4.4%

O=C(O)c1cc2sccc2[nH]1 [Compound 1, 4H-thieno[3,2-b]pyrrole-5-carboxylic acid]
PWT, ipsilateral side ([1]; 30 mg/kg orally, 1 hour after dosing, before dosing 1.25±0.18 g): 2.50 ± 0.33 g
PWT, contralateral side ([1]; 30 mg/kg orally, 1 hour after dosing, pre-drug level 8.80±0.13 g): 8.15 ± 0.45 g
PWT, ipsilateral side ([1]; 30 mg/kg orally, 3 hours after dosing, before dosing 1.25±0.18 g): 4.44 ± 0.27 g
PWT, contralateral side ([1]; 30 mg/kg orally, 3 hours after dosing, pre-drug level 8.80±0.13 g): 8.90 ± 0.15 g
PWT, ipsilateral side ([1]; 30 mg/kg orally, 6 hours after dosing, before dosing 1.25±0.18 g): 5.71 ± 0.66 g
PWT, contralateral side ([1]; 30 mg/kg orally, 6 hours after dosing, pre-drug level 8.80±0.13 g): 9.70 ± 0.77 g
PWT, ipsilateral side ([1]; 30 mg/kg orally, 24 hours after dosing, before dosing 1.25±0.18 g): 1.90 ± 0.38 g
PWT, contralateral side ([1]; 30 mg/kg orally, 24 hours after dosing, pre-drug level 8.80±0.13 g): 8.35 ± 0.50 g
Time after dosing at which the effect on PWT reached a peak ([1]; 30 mg/kg orally, ipsilateral side): 6 h
Activity in contextual fear conditioning ([2]; 10 mg/kg P.O.): active
